Laboratory results: patent US6900344B2, “Method of preparing alkylated salicylamides via a dicarboxylate intermediate” (Emisphere Technologies, Inc., priority 2000, dated 2005)

Test: solubility in DMAC
Conditions: in DMAC (dimethylacetamide)

O=c1[nH]c(=O)c2ccccc2o1 [carsalam, 2H-1,3-benzoxazine-2,4(3H)-dione]
solubility: about 30%
